The test system of assay [1] is MDA-MB-231 cells. Description: Cell proliferation assay (CellTiter-Glo), MDA-MB-231. It counts as cell-based. The settings on record: Homo sapiens, MDA-MB-231, 72 h, 72 h treatment, Celltiter-Glo luminescence. The gist of the method:
(§1)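 Compounds tested over ten concentrations ([…]) for 72 h on EVSA-T cells in MEM/10% FBS and MDA-MB-231 cells in RPMI-1640/10% FBS, seeded at 10000/well. Luminescent CellTiter-Glo readout; IC50 fitted after normalisation to controls.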
Background: ATP-based viability assays read luminescence as a measure of living cells.

The test system of assay [2] is EVSA-T cells. The assay can be described thus: Cell proliferation assay (CellTiter-Glo), EVSA-T. The conditions noted are these: Homo sapiens, EVSA-T, 72 h, 72 h treatment, Celltiter-Glo luminescence. It counts as cell-based. An outline of the steps:
as §1

In the case of `C[C@@H]1CN(CC(=O)N2CC(C)(C)c3c2cc(Cc2ccc(F)cc2)c2nn(Cc4cccnc4)c(=O)n32)[C@@H](CN2CCOC[C@H]2C)CN1` [Compound 245, 4-(4-fluorobenzyl)-8,8-dimethyl-6-(2-((2R,5R)-5-methyl-2-(((R)-3-methylmorpholino)methyl)piperazin-1-yl)acetyl)-2-(pyridin-3-ylmethyl)-2,6,7,8-tetrahydro-1H-pyrrolo[2,3-e][1,2,4]triazolo[4,3-a]pyridin-1-one], the values for the IC50 in assay [1] and in assay [2] were 5 nM and 6.2 nM, respectively.

Turning to `C[C@@H]1CN(CC(=O)N2CC(C)(C)c3c2cc(Cc2ccc(F)cc2O)c2ncnn32)[C@@H](CN2CCOC[C@H]2C)CN1` [Compound 42, 1-(4-(4-fluoro-2-hydroxybenzyl)-8,8-dimethyl-7,8-dihydro-6H-pyrrolo[2,3-e][1,2,4]triazolo[1,5-a]pyridin-6-yl)-2-((2R,5R)-5-methyl-2-(((R)-3-methylmorpholino)methyl)piperazin-1-yl)ethan-1-one], the IC50 in assay [1] worked out at 100 nM; in assay [2], 13 nM.

Take `CC(O)c1nc2c(Cc3ccc(F)cc3)cc3c(n2n1)C(C)(C)CN3C(=O)CN1C[C@@H](C)NC[C@@H]1CN1CCOC[C@H]1C` (stereo partly drawn) [Compound 154, 1-(4-(4-fluorobenzyl)-2-(1-hydroxyethyl)-8,8-dimethyl-7,8-dihydro-6H-pyrrolo[2,3-e][1,2,4]triazolo[1,5-a]pyridin-6-yl)-2-((2R,5R)-5-methy 1-2-(((R)-3-methylmorpholino)methyl)piperazin-1-yl)ethan-1-one]: the results for the IC50 in assay [1] and in assay [2] were 100 nM and 5 nM, respectively.

As for `COC(=O)N(C)c1nc2c(Cc3ccc(F)cc3)cc3c(n2n1)C(C)(C)CN3C(=O)CN1C[C@@H](C)NC[C@@H]1CN1CCOC[C@H]1C` [Compound 225, methyl (4-(4-fluorobenzyl)-8,8-dimethyl-6-(2-((2R,5R)-5-methyl-2-(((R)-3-methylmorpholino)methyl)piperazin-1-yl)acetyl)-7,8-dihydro-6H-pyrrolo[2,3-e][1,2,4]triazolo[1,5-a]pyridin-2-yl)(methyl)carbamate], the IC50 was determined as 50 nM in assay [1] and 2 nM in assay [2].

Consider `C[C@@H]1CN(CC(=O)N2CC(C)(C)c3c2cc(Cc2ccc(F)cc2)c2nn([C@H]4CCOC4)c(=O)n32)[C@@H](CN2CCOC[C@H]2C)CN1` [Compound 218, 4-(4-fluorobenzyl)-8,8-dimethyl-6-(2-((2R,5R)-5-methyl-2-(((R)-3-methylmorpholino)methyl)piperazin-1-yl)acetyl)-2-((S)-tetrahydrofuran-3-yl)-2,6,7,8-tetrahydro-1H-pyrrolo[2,3-e][1,2,4]triazolo[4,3-a]pyridin-1-one], for which the IC50 in assay [1] was 47 nM; in assay [2], 2 nM.

On to `C[C@@H]1CN(CC(=O)N2CC(C)(C)c3c2cc(Cc2ccc(F)cc2)c2nccn32)[C@@H](CN2CCOC[C@H]2C)CN1` [Example 17, 1-(4-(4-fluorobenzyl)-8,8-dimethyl-7,8-dihydro-6H-imidazo[1,2-a]pyrrolo[2,3-e]pyridin-6-yl)-2-((2R,5R)-5-methyl-2-(((R)-3-methylmorpholino)methyl)piperazin-1-yl)ethan-1-one], for which the IC50 in assay [1] was found to be 120 nM; in assay [2], 4 nM.

As for `C[C@@H]1CN(CC(=O)N2CC(C)(C)c3c2cc(Cc2ccc(F)cc2)c2nn(Cc4ccccn4)c(=O)n32)[C@@H](CN2CCOC[C@H]2C)CN1` [Compound 192, 4-(4-fluorobenzyl)-8,8-dimethyl-6-(2-((2R,5R)-5-methyl-2-(((R)-3-methylmorpholino)methyl)piperazin-1-yl)acetyl)-2-(pyridin-2-ylmethyl)-2,6,7,8-tetrahydro-1H-pyrrolo[2,3-e][1,2,4]triazolo[4,3-a]pyridin-1-one], the IC50 came to 38 nM in assay [1] and 7 nM in assay [2].

As to `C[C@@H]1CN(CC(=O)N2CC(C)(C)c3c2cc(Cc2ccc(F)cc2)c2nc(CN(C)C)nn32)[C@@H](CN2CCOC[C@H]2C)CN1` [Compound 212, 1-(2-((dimethylamino)methyl)-4-(4-fluorobenzyl)-8,8-dimethyl-7,8-dihydro-6H-pyrrolo[2,3-e][1,2,4]triazolo[1,5-a]pyridin-6-yl)-2-((2R,5R)-5-methyl-2-(((R)-3-methylmorpholino)methyl)piperazin-1-yl)ethan-1-one], the figures for the IC50 in assay [1] and in assay [2] were 41 nM and 7 nM, respectively.

As to `C[C@@H]1CN(CC(=O)N2CC(C)(C)c3c2cc(Sc2ccc(F)cc2)c2ncnn32)[C@@H](CN2CCOC[C@H]2C)CN1` [Compound 49, 1-(4-((4-fluorophenyl)thio)-8,8-dimethyl-7,8-dihydro-6H-pyrrolo[2,3-e][1,2,4]triazolo[1,5-a]pyridin-6-yl)-2-((2R,5R)-5-methyl-2-(((R)-3-methylmorpholino)methyl)piperazin-1-yl)ethan-1-one], the IC50 in assay [1] is 30 nM; in assay [2], 5 nM.

Take `C[C@@H]1CN(CC(=O)N2CC(C)(C)c3c2cc(Cc2ccc(F)cc2)c2nc(NC=O)nn32)[C@@H](CN2CCOC[C@H]2C)CN1` [Compound 239, N-(4-(4-fluorobenzyl)-8,8-dimethyl-6-(2-((2R,5R)-5-methyl-2-(((R)-3-methylmorpholino)methyl)piperazin-1-yl)acetyl)-7,8-dihydro-6H-pyrrolo[2,3-e][1,2,4]triazolo[1,5-a]pyridin-2-yl)formamide]: the IC50 was determined as 14 nM in assay [1] and 0.5 nM in assay [2].

As to `C[C@@H]1CN(CC(=O)N2CC(C)(C)c3c2cc(Cc2ccc(F)cc2)c2nn(CC(F)(F)F)c(=O)n32)[C@@H](CN2CCOC[C@H]2C)CN1` [Compound 263, 4-(4-fluorobenzyl)-8,8-dimethyl-6-(2-((2R,5R)-5-methyl-2-(((R)-3-methylmorpholino)methyl)piperazin-1-yl)acetyl)-2-(2,2,2-trifluoroethyl)-2,6,7,8-tetrahydro-1H-pyrrolo[2,3-e][1,2,4]triazolo[4,3-a]pyridin-1-one], the IC50 amounted to 27 nM in assay [1] and 8.2 nM in assay [2].

Consider `C[C@@H]1CN(CC(=O)N2CC(C)(C)c3c2cc(Cc2ccc(F)cc2)c2nc(C(F)(F)F)cn32)[C@@H](CN2CCOCC23CC3)CN1` [Compound 147, 2-((2R,5R)-2-((7-oxa-4-azaspiro[2.5]octan-4-yl)methyl)-5-methylpiperazin-1-yl)-1-(4-(4-fluorobenzyl)-8,8-dimethyl-2-(trifluoromethyl)-7,8-dihydro-6H-imidazo[1,2-a]pyrrolo[2,3-e]pyridin-6-yl)ethan-1-one], for which the results for the IC50 in assay [1] and in assay [2] were 120 nM and 10 nM, respectively.

Regarding `Cc1nc(C#N)c2c(Cc3ccc(F)cc3)cc3c(n12)C(C)(C)CN3C(=O)CN1C[C@@H](C)NC[C@@H]1CN1CCOC[C@H]1C` [Compound 130, 4-(4-fluorobenzyl)-1,8,8-trimethyl-6-(2-((2R,5R)-5-methyl-2-(((R)-3-methylmorpholino)methyl)piperazin-1-yl)acetyl)-7,8-dihydro-6H-imidazo[1,5-a]pyrrolo[2,3-e]pyridine-3-carbonitrile], the IC50 was 230 nM in assay [1] and 37 nM in assay [2].

With `C[C@@H]1CN(CC(=O)N2CC(C)(C)c3c2cc(Cc2ccc(F)cc2Cl)c2ncnn32)[C@@H](CN2CCOC[C@H]2C)CN1` [Compound 123, 1-(4-(2-chloro-4-fluorobenzyl)-8,8-dimethyl-7,8-dihydro-6H-pyrrolo[2,3-e][1,2,4]triazolo[1,5-a]pyridin-6-yl)-2-((2R,5R)-5-methyl-2-(((R)-3-methylmorpholino)methyl)piperazin-1-yl)ethan-1-one], the values for the IC50 in assay [1] and in assay [2] were 120 nM and 43 nM, respectively.

`C[C@@H]1CN(CC(=O)N2CC(C)(C)c3c2cc(Cc2ccc(F)cc2)c2nn(Cc4cncnc4)c(=O)n32)[C@@H](CN2CCOC[C@H]2C)CN1` [Compound 236, 4-(4-fluorobenzyl)-8,8-dimethyl-6-(2-((2R,5R)-5-methyl-2-(((R)-3-methylmorpholino)methyl)piperazin-1-yl)acetyl)-2-(pyrimidin-5-ylmethyl)-2,6,7,8-tetrahydro-1H-pyrrolo[2,3-e][1,2,4]triazolo[4,3-a]pyridin-1-one]: the figures for the IC50 in assay [1] and in assay [2] were 87 nM and 0.7 nM, respectively.

For the compound `C[C@@H]1CN(CC(=O)N2CC(C)(C)c3c2cc(Cc2ccc(F)cc2)c2nc(C(C)(C)O)nn32)[C@@H](CN2CCOC[C@H]2C)CN1` [Compound 137, 1-(4-(4-fluorobenzyl)-2-(2-hydroxypropan-2-yl)-8,8-dimethyl-7,8-dihydro-6H-pyrrolo[2,3-e][1,2,4]triazolo[1,5-a]pyridin-6-yl)-2-((2R,5R)-5-methyl-2-(((R)-3-methylmorpholino)methyl)piperazin-1-yl)ethan-1-one], the IC50 in assay [1] turned out to be 190 nM; in assay [2], 12 nM.

As to `C[C@@H]1CN(CC(=O)N2CC(C)(C)c3c2cc(Cc2ccc(F)cc2)c2nc(N(C)C=O)nn32)[C@@H](CN2CCOC[C@H]2C)CN1` [Compound 241, N-(4-(4-fluorobenzyl)-8,8-dimethyl-6-(2-((2R,5R)-5-methy 1-2-(((R)-3-methylmorpholino)methyl)piperazin-1-yl)acetyl)-7,8-dihydro-6H-pyrrolo[2,3-e][1,2,4]triazolo[1,5-a]pyridin-2-yl)-N-methylformamide], the results for the IC50 in assay [1] and in assay [2] were 15 nM and 6.3 nM, respectively.

Turning to `C[C@@H]1CN(CC(=O)N2CC(C)(C)c3c2cc(Cc2ccc(F)cc2)c2nc(C#N)cn32)[C@@H](CN2CCOC[C@H]2C)CN1` [Example 21, 4-(4-fluorobenzyl)-8,8-dimethyl-6-(2-((2R,5R)-5-methyl-2-(((R)-3-methylmorpholino)methyl)piperazin-1-yl)acetyl)-7,8-dihydro-6H-imidazo[1,2-a]pyrrolo[2,3-e]pyridine-2-carbonitrile], the figures for the IC50 in assay [1] and in assay [2] were 23 nM and 5 nM, respectively.

As usually defined, the IC50 is the concentration at which inhibition is half-maximal.

Values taken from patent US20250179073A1, “TRICYCLIC HETEROCYCLE COMPOUNDS AS IAP ANTAGONISTS” (Ascentage Pharma (Suzhou) Co., Ltd., priority 2022, published 2025).
